Tests used:
[1] = target: Kappa-type opioid receptor (Homo sapiens, UniProt P41145); test: Inhibition of kappa opioid receptor at 10 uM
[2] = target: Alpha-2A adrenergic receptor (Homo sapiens) (UniProt P08913); test: Inhibition of alpha2A adrenergic receptor at 10 uM
[3] = target: Alpha-1B adrenergic receptor (Homo sapiens, UniProt P35368); test: Inhibition of Alpha-1B adrenergic receptor
[4] = target: 5-hydroxytryptamine receptor 2B (Homo sapiens, UniProt P41595); test: Inhibition of 5-HT2B receptor
5-hydroxytryptamine receptor 2B, sequence (P41595 whole entry): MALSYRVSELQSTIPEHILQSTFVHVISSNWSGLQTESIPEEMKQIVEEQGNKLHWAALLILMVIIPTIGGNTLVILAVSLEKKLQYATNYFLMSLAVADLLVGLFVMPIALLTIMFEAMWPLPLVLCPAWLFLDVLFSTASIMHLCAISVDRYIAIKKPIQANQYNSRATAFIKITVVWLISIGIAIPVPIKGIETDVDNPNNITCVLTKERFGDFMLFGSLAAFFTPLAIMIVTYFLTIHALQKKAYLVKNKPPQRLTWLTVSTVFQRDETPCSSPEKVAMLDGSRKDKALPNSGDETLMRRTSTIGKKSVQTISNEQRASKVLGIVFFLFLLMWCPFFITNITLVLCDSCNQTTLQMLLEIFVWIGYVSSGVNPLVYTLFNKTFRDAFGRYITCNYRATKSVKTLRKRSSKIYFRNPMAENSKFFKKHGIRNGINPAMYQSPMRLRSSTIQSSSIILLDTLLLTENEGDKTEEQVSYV

Kappa-type opioid receptor, sequence (P41145 whole entry): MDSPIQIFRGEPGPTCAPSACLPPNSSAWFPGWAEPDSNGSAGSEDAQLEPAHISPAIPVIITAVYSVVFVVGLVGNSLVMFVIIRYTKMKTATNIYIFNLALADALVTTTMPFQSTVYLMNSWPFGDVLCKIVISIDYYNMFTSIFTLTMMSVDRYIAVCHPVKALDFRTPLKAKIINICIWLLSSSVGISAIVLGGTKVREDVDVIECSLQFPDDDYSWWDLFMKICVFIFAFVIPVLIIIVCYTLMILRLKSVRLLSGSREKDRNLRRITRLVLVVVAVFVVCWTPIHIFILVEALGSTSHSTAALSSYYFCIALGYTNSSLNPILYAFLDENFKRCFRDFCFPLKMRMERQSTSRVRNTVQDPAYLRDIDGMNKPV
Alpha-2A adrenergic receptor (Homo sapiens), sequence (P08913 whole entry): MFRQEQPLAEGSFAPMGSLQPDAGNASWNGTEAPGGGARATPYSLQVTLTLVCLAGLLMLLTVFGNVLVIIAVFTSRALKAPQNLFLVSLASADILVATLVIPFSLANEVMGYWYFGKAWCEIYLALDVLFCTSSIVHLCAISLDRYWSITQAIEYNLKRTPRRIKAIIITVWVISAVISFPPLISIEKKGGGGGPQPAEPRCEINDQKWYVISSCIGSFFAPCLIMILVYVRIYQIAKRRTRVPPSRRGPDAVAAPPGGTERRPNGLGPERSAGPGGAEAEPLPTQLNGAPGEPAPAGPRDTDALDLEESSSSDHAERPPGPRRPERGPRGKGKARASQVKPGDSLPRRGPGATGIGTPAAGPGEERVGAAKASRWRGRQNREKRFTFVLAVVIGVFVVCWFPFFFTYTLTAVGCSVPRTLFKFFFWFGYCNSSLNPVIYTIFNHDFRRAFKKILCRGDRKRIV
Alpha-1B adrenergic receptor, sequence (P35368 whole entry): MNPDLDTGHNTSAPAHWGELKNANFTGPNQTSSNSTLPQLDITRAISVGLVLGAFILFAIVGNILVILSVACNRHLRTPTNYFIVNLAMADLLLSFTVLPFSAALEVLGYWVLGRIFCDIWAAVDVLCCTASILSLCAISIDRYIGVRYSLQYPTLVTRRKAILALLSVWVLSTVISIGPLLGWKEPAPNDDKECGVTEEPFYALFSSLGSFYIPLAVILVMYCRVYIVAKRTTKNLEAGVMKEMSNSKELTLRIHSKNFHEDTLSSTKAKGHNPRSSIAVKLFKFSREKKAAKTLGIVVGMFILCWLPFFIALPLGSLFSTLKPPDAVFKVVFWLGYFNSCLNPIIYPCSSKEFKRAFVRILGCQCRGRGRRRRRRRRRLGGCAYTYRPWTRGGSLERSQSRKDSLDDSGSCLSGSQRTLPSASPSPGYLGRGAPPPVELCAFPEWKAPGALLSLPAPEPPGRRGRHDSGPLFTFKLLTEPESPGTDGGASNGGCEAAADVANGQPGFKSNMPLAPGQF

| inhibition [1] [%] | inhibition [2] [%] | Ki [3] [µM] | Ki [4] [µM] | Structure (SMILES) |
| --- | --- | --- | --- | --- |
| < 50 | < 50 |  |  | C#CCOc1ccc(-c2nn3c(C)cc(C)nc3c2CC(=O)N(CC)CC)cc1 |
| < 50 |  |  |  | CCOc1ccc(-c2nn3c(C)cc(C)nc3c2CC(=O)N(CC)CC)cc1 |
|  |  | > 10 |  | CCCOc1ccc(-c2nn3c(C)cc(C)nc3c2CC(=O)N(CC)CC)cc1 |
|  | < 50 |  | 8.36 | CCCCOc1ccc(-c2nn3c(C)cc(C)nc3c2CC(=O)N(CC)CC)cc1 |

Source: ChEMBL document CHEMBL1255512, “Pyrazolo[1,5-a]pyrimidine acetamides: 4-Phenyl alkyl ether derivatives as potent ligands for the 18 kDa translocator protein (TSPO)” (Bioorg Med Chem Lett, 2010)
